“Also recorded” adds a separate entry of the source.

For assay [1], the system named is HCT-116 colon cancer cells. The assay is described as follows: HCT-116 colon cancer xenograft in Balb/C nu-/nu- mice. The assay is classed as in vivo. The conditions noted are these: 30 mg/kg i.p. on days 6, 7 and 8. The procedure: Additional experiments were performed using a different tumor xenograft model. HCT-116 colon cancer cells (2.5 million) were injected subcutaneously in the flanks of female Balb/C nu-/nu-mice. […] Tumor volume was measured by external calipers at least twice weekly for 19 days (see FIG. 32c). On day 19, the mice were sacrificed and the tumors were excised and weighed.

Assay [2] concerns U937 leukemia cells over-expressing XIAP. The assay is described as follows: U937-Neo versus U937-XIAP leukemia cells, Annexin V. The settings on record: 5 or 8 μM, 20 hours. It counts as cell-based. As for the experimental part:
After incubation, cells were washed, stained with FITC-conjugated Annexin V antibody and propidium iodide, and fluorescence measured by flow cytometry as described in Example XI.
Equal amounts of protein were subjected to SDS-PAGE (4-20% gradient gels from ISC BioExpress, Kaysville, Utah), followed by transfer to nitrocellulose membranes. […] Secondary antibodies consisted of horseradish peroxidase (HRP)-conjugated:goat anti-mouse IgG (Bio-Rad, Hercules, Calif.). Detection was performed by the enhanced chemiluminescence (ECL) method. […] Lysates were prepared from the cells, normalized for total protein content and analyzed by SDS-PAGE immunoblotting using antibodies specific for XIAP, caspase-3, and β-actin.

The target of another assay is XIAP (Homo sapiens, UniProt P98170). Description: SMAC binding/competition assay: biotinylated SMAC 7-mer on NeutrAvidin plates, GST-XIAP detected by anti-GST. The conditions noted are these: in words. The procedure: Peptide compounds containing unnatural amino acids in the 792 series, 792-33 and 792-35 (see FIG. 12 and 20 and Example XI), and an active compound in the TPI 1332 series, TPI 1332-69, were tested for binding activity in the SMAC binding assay as described above in Example X. For this assay, biotinylated SMAC 7-mer peptide (50 ng) was bound to 96 well plates coated with NeutrAvidin (Pierce, Rockford, Ill.) at 1 mg/ml in 100 μl per well of 50 mM HEPES pH 7.4, 100 mM NaCl 1 mM EDTA, 10% sucrose, 0.1% CHAPS, 10 mM DTT.
XIAP, sequence (P98170 whole entry): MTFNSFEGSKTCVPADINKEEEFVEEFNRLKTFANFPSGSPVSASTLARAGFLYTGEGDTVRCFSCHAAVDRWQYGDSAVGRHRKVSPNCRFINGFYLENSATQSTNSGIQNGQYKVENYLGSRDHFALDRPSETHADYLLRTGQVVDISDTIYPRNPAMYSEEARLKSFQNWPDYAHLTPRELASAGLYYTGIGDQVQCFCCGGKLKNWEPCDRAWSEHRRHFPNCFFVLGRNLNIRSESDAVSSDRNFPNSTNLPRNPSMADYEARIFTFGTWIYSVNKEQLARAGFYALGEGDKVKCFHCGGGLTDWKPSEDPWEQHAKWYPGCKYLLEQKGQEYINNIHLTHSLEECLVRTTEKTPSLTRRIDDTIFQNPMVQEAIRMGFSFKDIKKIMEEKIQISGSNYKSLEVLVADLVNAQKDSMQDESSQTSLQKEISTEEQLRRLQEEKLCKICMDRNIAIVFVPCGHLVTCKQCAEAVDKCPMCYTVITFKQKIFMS

On to `COc1ccc(CCN2CCC[C@@H]2CN(C(=O)Nc2ccccc2)[C@@H](CNC(=O)Nc2ccccc2)CC2CCCCC2)cc1` [TPI 1396-34], for which, in assay [1], the “tumor size / growth, HCT116 xenograft” value was “tumor size was reduced; also recorded: significantly slowed the rate of growth”. Besides, the “effect of over-expression of XIAP on apoptosis induction” value in assay [2] is listed as “resistant”. The “competition with XIAP binding to the SMAC peptide (SMAC competition assay)” value on XIAP is recorded as “does not compete”.

The values are drawn from patent publication US20060258581A1, “Methods and composition for derepressions of IAP-inhibited caspase” (priority 2001, published 2006).
